Source: US20060134729A1, “Process for the universal detection of microorganisms and reaction environment permitting the implementation of the process” (HEMOSYSTEM, a corporation of France, priority 2002, published 2006)

Tests used:
[1] = tested on: Escherichia coli; conditions: EDTA 5 mM; PBS, distilled water, TSB, plasma
Procedure: (§1) Prepare a solution of PicoGreen at 1/2000 (molecular probe) in PBS buffer. EDTA 5 mM: 0.093 g disodic EDTA, QSP 50 mL distilled water. Suspension of bacteria prepared in PBS in distilled water in a TSB (tryptone soy broth) environment and in plasma. • Escherichia coli (CIP 105901) • Staphylococcus epidermidis (CIP 68.21) Adjust the preparations to obtain a suspension with 10^3 bacteria/ml. • 1.2 mL of marking solution • +3 mL of bacterial suspension in the various environments • Incubation 15 minutes at 22° C. • +7 mL of EDTA solution • Filtration on char filter 0.4 μm porosity. III Analysis and Results After filtration, the filter is analyzed by cytometry in solid phase and the results are expressed as the number of fluorescent bacteria.

[2] = tested on: Staphylococcus epidermidis; conditions: EDTA 5 mM; PBS, distilled water, TSB, plasma
Procedure: as §1

[3] = tested on: Escherichia coli; assay: PicoGreen DNA marking with association nisine/EDTA, cytometry in solid phase; assay type: cell-based
Procedure: (§2) Prepare a solution of PicoGreen at 1/2000 (molecular probe) in PBS buffer (saline phosphate buffer, pH 7.4).
Nisine 10 μg/ml: 0.02 g nisine (starting material at 2.5% weight/weight) QSP 50 ml distilled water. • EDTA 20 mM: 0.372 g disodic EDTA, QSP 50 ml of distilled water, • Prepare a range of EDTA with 0.25; 2.5; 12.5 and 18.75 ml of EDTA 20 mM (concentration range 0.1; 1; 5 and 7.5 mM), • Add 50, 250, 500 μl or 1 ml nisine 10 μg/ml (concentration range […]; 0.05; 0.1 and […]), • QSP 50 ml of distilled water. Suspension of Bacteria Prepared in PBS • Escherichia coli (CIP 105901)
(§3) Adjust the preparations to obtain a suspension with 10^3 bacteria/ml.
• 1.2 ml of marking solution • +3 ml bacterial suspension • Incubation 15 minutes at 22° C. • +7 ml of solution of nisine or nisine/EDTA • Filtration on char filter 0.4 μm porosity. III Analysis and Results
After filtration, the filter is analyzed by cytometry in solid phase and the results expressed as the number of bacteria detected in cytometry in solid phase and as a percentage of bacteria detected relative to the method of enzymatic detection.

[4] = tested on: Escherichia coli, Serratia marcescens, Staphylococcus epidermidis; assay: Optimization of nisine/EDTA concentrations, entirety of bacteria tested; assay type: cell-based
Procedure: as §2
(§4) […] nisine (starting material at 2.5% weight/weight) in 50 ml distilled water or 10 μg/ml,
(§5) Nisine 0.05 μg/ml/EDTA 7.5 mM: 250 μl nisine 10 μg/ml +0.140 g disodic EDTA, QSP 50 mL distilled water,
(§6) Nisine 0.1 μg/ml/EDTA 7.5 mM: […] nisine 10 μg/ml +0.140 g disodic EDTA, QSP 50 mL distilled water,
(§7) Nisine 0.5 μg/ml/EDTA 7.5 mM: 2.5 ml nisine 10 μg/ml+0.140 g disodic EDTA, QSP 50 mL water.
(§8) • Escherichia coli (CIP 105901) • Staphylococcus epidermidis (CIP 68.21) • Serratia marcescens (CIP 103716)
as §3
(§9) • 1.2 mL marking solution • +3 mL bacterial suspension • Incubation 15 minutes at 22° C. • +7 ml solution of nisine/EDTA at different concentrations • Filtration on char filter 0.4 μm porosity. III Analysis and Results
(§10) After filtration, the filter is analyzed by cytometry in solid phase and the results expressed as the number of bacteria detected in cytometry in solid phase.

[5] = tested on: Pseudomonas aeruginosa; assay: Marking with nisine/EDTA/N octyl glucopyranoside; assay type: cell-based; conditions: NOG 0.25% and 0.5% with nisine 0.2 μg/ml, EDTA 7.5 mM
Procedure: (§11) 100 μg/ml: […] (starting material at 2.5% weight/weight) QSP 50 ml distilled water. • EDTA 100 mM: […] disodic EDTA, QSP 50 ml distilled water, • N octyl glucopyranoside 5%: 2.5 g in 50 ml distilled water • 20, 10, 5 or 2.5 ml NOG at 5% • +3.75 ml EDTA 100 mM • +0.1 ml […] 100 μg/ml • QSP 50 ml distilled water • This solution is at pH 4.8.

[6] = tested on: Staphylococcus epidermidis; assay: Marking with nisine/EDTA/N octyl glucopyranoside; assay type: cell-based; conditions: NOG 0.25% and 0.5% with nisine 0.2 μg/ml, EDTA 7.5 mM
Procedure: as §11

[7] = tested on: Escherichia coli, Pseudomonas aeruginosa and Serratia marcescens; assay: Marking in the presence of chlorohexidine alone, Gram- strains; assay type: cell-based; conditions: tested range 0.01%, 0.005%, 0.001%
Procedure: (§12) Test implementing chlorohexidine only as permeabilizing agent for favoring the penetration of the bacterial marking agent. […] The counting on a Petri dish at 48 hours takes place with the reference method. The results of this experiment with a composition of the reaction environment comprising chlorohexidine as cellular penetration reactant to improve the marking of Escherichia coli, Pseudomonas aeruginosa and Serratia marcescens (Gram (−) bacterial strains) and Staphylococcus epidermidis are illustrated in FIG. 8.

[8] = tested on: Staphylococcus epidermidis; assay: Marking in the presence of chlorohexidine alone, Gram+; assay type: cell-based; conditions: chlorohexidine 0.005%
Procedure: as §12

[9] = tested on: Pseudomonas aeruginosa; assay: Marking in the presence of chlorohexidine alone in different environments; assay type: cell-based; conditions: bacteria in PBS, platelet concentrate, autologous plasma
Procedure: Test implementing chlorohexidine only as permeabilizing agent for favoring the penetration of the bacterial marking agent. […] The counting on a Petri dish at 48 hours takes place with the reference method.

[10] = tested on: Escherichia coli, Staphylococcus epidermidis, Serratia marcescens, Pseudomonas aeruginosa; assay: Marking with association chlorohexidine/N-octyl glucopyranoside; assay type: cell-based; conditions: most elevated chlorohexidine concentration (0.001% vs 0.0005%) with NOG; PBS and platelet concentrate
Excerpt: The results of this experiment showing the marking of DA and the detection of marked bacteria in the presence of a composition of the reaction environment comprising chlorohexidine in association with NOG for increasing the permeabilizing power and the penetration of the marker are illustrated in FIGS. 10A and 10B.

[11] = tested on: Staphylococcus epidermidis; assay: PicoGreen DNA marking with nisine alone, cytometry in solid phase; assay type: cell-based; conditions: nisine solutions 2, 10, 50 μg/ml, bacteria in PBS
Procedure: The use of nisine solely as a permeabilizing agent for facilitating penetration of the marking agent.
Prepare a series of dilutions of nisine (starting material at 2.5% weight/weight) in distilled water: • 0.1 g nisine in 50 ml distilled water=solution 50 μg/ml, • 0.02 g of nisine in 50 ml distilled water=solution 10 μg/ml, • 0.004 g of nisine in 50 ml distilled water=solution 2 μg/ml. Suspension of Bacteria Prepared in PBS • Escherichia coli (CIP 105901) • Staphylococcus epidermidis (68.21)
Adjust the preparations in order to obtain a suspension with 10^4 bacteria/ml.

[12] = tested on: Escherichia coli; assay: Optimization of nisine/EDTA concentrations, cytometry in solid phase; assay type: cell-based; conditions: EDTA fixed at 7.5 mM
Procedure: as §2, §4, §5, §6, §7, §8, §3, §9, §10

## O=C([O-])CN(CCN(CC(=O)[O-])CC(=O)O)CC(=O)O.[Na+].[Na+] [EDTA, disodic EDTA]
[1]
  marking of Gram- bacteria with EDTA by itself: does not permit a correct marking
[2]
  marking of Gram+ bacteria with EDTA by itself: does not permit a correct marking
[3]; with nisine 0.1 μg/ml
  EDTA concentration at which percentage of marked Escherichia coli is maximal: 7.5 mM
[4]; associated with nisine 0.2 μg/ml
  EDTA concentration giving better detection of the entirety of bacteria tested: 7.5 mM

## CCCCCCCCO[C@@H]1O[C@H](CO)[C@@H](O)[C@H](O)[C@H]1O [N octyl glucopyranoside, N-octyl β D-glucopyranoside]
[5]
  effect of addition on the marking of Pseudomonas aeruginosa: positive effects
[6]
  effect of addition on the marking of Staphylococcus epidermidis: positive effects

## CC(=O)O.CC(=O)O.NC(=N\CCCCCC/N=C(N)/N=C(\N)Nc1ccc(Cl)cc1)/N=C(\N)Nc1ccc(Cl)cc1 [chlorohexidine, Diacetate chlorohexidine]
[7]
  optimal concentration for the detection of Gram- bacteria: 0.005%
[8]
  effect on Gram+ bacteria: toxic
[9]
  effect of plasma on cellular penetration of the marker with chlorohexidine: presence of plasma antagonizes the effect
[10]
  marking of the bacteria: best marking

## nisine
[11]
  preferable nisine concentration for marking: low concentrations are preferable
[11]; PicoGreen
  marking of the Gram+ on addition of nisine: good marking
[3]; with EDTA 7.5 mM
  nisine concentration at which percentage of marked Escherichia coli is maximal: 0.1 µg/mL
[12]
  nisine concentration at which percentage of marked Escherichia coli is maximal: 0.1 µg/mL
[4]; associated with EDTA 7.5 mM
  nisine concentration giving better detection of the entirety of bacteria tested: 0.2 µg/mL
